The test system of assay [1] is collagen type III. Briefly: Transformation of fibroblasts into myofibroblasts (anti-fibrosis test), collagen type III. Type of assay: cell-based. The note with it: Homo sapiens, Fibroblast; HFL1 cells, 20 ng/ml TGF-β1, 48 hours, supernatant; read-out: IC50 Human COL1 (collagen type III). Here is the method: (§1) (4) Transformation of Fibroblasts into Myofibroblasts (Anti-Fibrosis Test) • I. Main materials
(§2) HFL1 medium: F12K+10% FBS, adherent growth • II. Experimental Setup • 1. Normal group (medium only), model group (induced by 20 ng/ml TGF-β1), test sample group (20 ng/ml TGF-β1+ compound with different final concentration) • 2. 5 compounds, 3 concentration gradients, each gradient 2 repeat wells. • II. Experimental steps • 1. Digesting and counting, 5e^5 cells/well/2 ml, and seeded in 6-well plates. • 2. After adherent, adding TGF-β1 at a final concentration of 20 ng/ml and stimulating for 48 hours. Adding compounds with different final concentrations (0, 5 uM, 20 uM). • 3. Collecting the supernatant, and detecting the amount of col1 and col3 in the supernatant by kit. Lysing the cells with lysate solution, centrifuging, and collecting the supernatant. • 4. Detection of a-SMA and other genes by qPCR ii. Test Results • (1) BCL-9 affinity results are shown in Tables 1.1, 1.2, and 1.3, and the test methods were as described above.

The test system of assay [2] is HCT116 cells. Briefly: CCK8 cell viability assay in HCT116 cells. Type of assay: cell-based. The note with it: Homo sapiens, HCT-116; Table 2, HCT116 cells, 24 hours. Here is the method:
• 1. HCT116 cell plating
Digesting, counting, and plating the cells in 96-well plates (flat bottom, transparent) with 10,000 cells/100 ul DMEM (10% FBS) per well; • 2. Observing the state of cells on the next day, and start dosing after cell attachment is intact; • 3. diluting 514 with DMEM (2% FBS) by gradient dilution with concentrations of 20 μM, 10 μM, 5 μM, 2.5 μM, 1.25 μM, 0.625 μM, 0.3125 μM, 0.15625 μM, 0 μM (equal volume of DMSO); • 4. Adding 100 μl of the above different concentrations of 514 to each well, and making two repeat wells for each concentration gradient; leaving three blank wells (only adding DMEM 2% FBS culture medium without cells). • 5. Culturing at 37° C. for 24 hours; • 6. Adding 10 μl CCK-8 enhanced solution to each well: due to the small amount added of CCK-8 in each well, it may cause errors resulting from the reagent staining on the wall of the well. It is recommended to gently tap the culture plate after adding the reagent to help mixing; • 7. Incubating in the incubator for 0.5-4 hours: the amount of Formazan formed is not the same for different cell types, in most cases, incubation for 1 hour is enough. If the color development is not enough, incubation can be continued to determine optimal conditions. • 8. Measuring the absorbance at 450 nm and 600 nm (excluding the interference of the background color of the reagent and the absorbance value of the well plate itself); • 9. Using OD450 nm-OD600 nm for the final absorbance, and calculating the inhibition rate:
[formula] • As: absorbance of experimental wells (medium containing cells, CCK-8, drug to be tested); • Ac: absorbance of control wells (medium containing cells, CCK-8, and no drug to be tested); • Ab: absorbance of blank wells (medium without cells and drug to be tested, CCK-8). (3) qPCR • 1. HCT116 cell plating

The target of assay [3] is T1, BCL9/β-catenin (Homo sapiens, UniProt P35222).
T1 sequence (P35222 1-781): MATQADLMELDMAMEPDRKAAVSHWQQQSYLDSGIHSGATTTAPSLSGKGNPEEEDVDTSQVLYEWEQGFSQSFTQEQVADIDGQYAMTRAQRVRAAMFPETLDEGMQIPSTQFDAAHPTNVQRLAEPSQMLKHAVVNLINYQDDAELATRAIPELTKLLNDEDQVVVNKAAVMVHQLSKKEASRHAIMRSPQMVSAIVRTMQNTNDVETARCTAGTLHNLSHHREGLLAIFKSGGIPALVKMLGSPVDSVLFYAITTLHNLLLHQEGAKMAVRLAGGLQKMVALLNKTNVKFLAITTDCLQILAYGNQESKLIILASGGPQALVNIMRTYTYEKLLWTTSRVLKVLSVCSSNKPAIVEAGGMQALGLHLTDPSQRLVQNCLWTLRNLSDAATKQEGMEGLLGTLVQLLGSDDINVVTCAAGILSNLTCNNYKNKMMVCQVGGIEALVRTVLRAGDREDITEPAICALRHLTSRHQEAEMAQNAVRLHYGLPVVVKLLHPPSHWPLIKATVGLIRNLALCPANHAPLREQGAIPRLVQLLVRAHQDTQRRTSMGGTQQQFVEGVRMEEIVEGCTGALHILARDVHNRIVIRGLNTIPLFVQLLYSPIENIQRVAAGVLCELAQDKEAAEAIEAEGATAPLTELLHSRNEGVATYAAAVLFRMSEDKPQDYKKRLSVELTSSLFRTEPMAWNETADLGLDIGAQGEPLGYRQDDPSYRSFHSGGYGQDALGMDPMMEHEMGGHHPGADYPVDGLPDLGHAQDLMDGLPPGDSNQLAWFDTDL
Briefly: FP (BCL-9 avidity) fluorescence polarization competition assay with beta-catenin and FAP-Bcl9 tracer. It counts as binding. The method, then: Incubating for 2 hours on a horizontal shaker. Then adding 2 nM FAP-Bcl9 tracer to each well, and after incubation for 2H on a horizontal shaker, measuring the […].
(Polarisation of emitted light reports the rotation of a fluorescent probe.)

Assay [4] concerns Human COL1 (collagen type I). Briefly: Transformation of fibroblasts into myofibroblasts (anti-fibrosis test), collagen type I. The following applies: HFL1 cells, 20 ng/ml TGF-β1, 48 hours, supernatant. Type of assay: cell-based. The method, then: as §1, §2
Assay [5] relates to Human AXIN2. Briefly: qPCR of AXIN2 expression in HCT116 cells. It counts as cell-based. The following applies: HCT-116, Table 2, HCT116 cells, AXIN2 vs β-actin, 24 hours. The method, then:
Cells were digesting, counting, and plating cells in 24-well plates (flat bottom, clear), with 3×10^5 cells/500 ul DMEM (10% FBS) per well. • 2. Observing the state of cells on the next day, and start dosing after cell attachment is intact
Diluting 514 with DMEM (2% FBS) by gradient dilution with concentrations of 20 μM, 10 μM, 5 μM, 2.5 μM, 1.25 μM, 0.625 μM, 0.3125 μM, 0.15625 μM, 0 μM (equal volume DMSO)
Adding 500 μl of the above different concentrations of 514 to each well, and setting a single well for each concentration gradient except three repeat wells for the 0 μM concentration (double wells for qPCR). • 3. Incubating at 37° C. for 24 hours • 4. Discarding the supernatant, washing once with PBS, and adding trizol at 500/well • 5. RNA extraction (step omitted) • 6. Reverse transcription (step omitted, according to the kit) • 7. qPCR (step omitted, following the kit steps)
• 8. calculation of inhibition rate
Background: Real-time PCR tracks product formation cycle by cycle.

The test system of assay [6] is Human a-SMA. Briefly: Transformation of fibroblasts into myofibroblasts (anti-fibrosis test), a-SMA. The following applies: HFL1 cells, 20 ng/ml TGF-β1, 48 hours, qPCR. Type of assay: cell-based. The method, then: as §1, §2
Where [7] appears, read: Table 2, FP (BCL-9 affinity), read-out: FP.
Where [8] appears, read: Table 1.3, compounds 15-20, read-out: BCL-9 avidity FP IC50.

Where two headings read alike, the source gives them in different places.

With `CC(C)(Oc1cccc(N2CCC[C@@H](C(=O)N(Cc3ccc(-c4cn[nH]c4)cc3)C3CC3)C2)c1Cl)C(=O)N1CCNCC1` [Compound 7, (3R)-1-(2-chloro-3-{[2-methyl-1-oxo-1-(piperazin-1-yl)propan-2-yl]oxy}phenyl)-N-cyclopropyl-N-{[4-(1H-pyrazol-4-yl)phenyl]methyl}piperidine-3-carboxamide], the IC50 was 10 to 20 µM in assay [1]; 1.05 µM in assay [2]; 3.15 µM in assay [3] (Table 1.2, compounds 7-16, read-out: BCL-9 avidity FP IC50); 3.15 µM in assay [3] (setting [7]); 10 to 20 µM in assay [4]; 1.46 µM in assay [5]. The molecule also came in with an IC50 in assay [6] of 20 to 30 µM.

`CC(C)(Oc1cccc(N2CCC[C@@H](C(=O)N(Cc3ccc(-c4ccccc4)c(Cl)c3)C3CC3)C2)c1)C(=O)N1CCNCC1` [Compound 14, (3R)-N-[(3-chloro-4-phenylphenyl)methyl]-N-cyclopropyl-1-(3-{[2-methyl-1-oxo-1-(piperazin-1-yl)propan-2-yl]oxy}phenyl)piperidine-3-carboxamide]: the IC50 in assay [2], in assay [3] (setting [7]) and in assay [5] was 10 to 50 µM throughout.

For the molecule `CC(C)(Nc1cccc(N2CCC[C@@H](C(=O)N(Cc3ccc(-c4cn[nH]c4)cc3)C3CC3)C2)c1)C(=O)N1CCNCC1` [Compound 15, (3R)-N-cyclopropyl-1-(3-{[2-methyl-1-oxo-1-(piperazin-1-yl)propan-2-yl]amino}phenyl)-N-{[4-(1H-pyrazol-4-yl)phenyl]methyl}piperidine-3-carboxamide], the IC50 in assay [2] is 2.42 µM; in assay [3] (setting [8]), 10 to 20 µM; in assay [3] (setting [7]) it was 10 to 20 µM; in assay [5], 10 to 20 µM.

In the case of `CN(c1cccc(N2CCC[C@@H](C(=O)N(Cc3ccc(-c4cn[nH]c4)cc3)C3CC3)C2)c1)C(C)(C)C(=O)N1CCNCC1` [Compound 16, (3R)-N-cyclopropyl-1-(3-{methyl[2-methyl-1-oxo-1-(piperazin-1-yl)propan-2-yl]amino}phenyl)-N-{[4-(1H-pyrazol-4-yl)phenyl]methyl}piperidine-3-carboxamid], the IC50 in assay [2] is 2.79 µM; in assay [3] (setting [8]), 10 to 20 µM; in assay [3] (setting [7]), 10 to 20 µM; in assay [5], 10 to 20 µM.

Turning to `CC(C)(Oc1cccc(N2CCC[C@@H](NC(=O)N(Cc3ccc(-c4cn[nH]c4)cc3)C3CC3)C2)c1)C(=O)N1CCNCC1` [Compound 17, 1-cyclopropyl-3-[(3R)-1-(3-{[2-methyl-1-oxo-1-(piperazin-1-yl)propan-2-yl]oxy}phenyl)piperidin-3-yl]-1-{[4-(1H-pyrazol-4-yl)phenyl]methyl}urea], the IC50 is 20 to 30 µM in assay [1]; 1.84 µM in assay [2]; 10 to 20 µM in assay [4]; 4.67 µM in assay [5]; 5 to 10 µM in assay [6].

Consider `CC(C)(Oc1cccc(N2CCC[C@@H](NC(=O)N(Cc3ccc(-c4cn[nH]c4)cc3)C3CC3)C2)c1)C(=O)NCCN` [Compound 18, N-(2-aminoethyl)-2-{3-[(3R)-3-{[cyclopropyl({[4-(1H-pyrazol-4-yl)phenyl]methyl})carbamoyl]amino}piperidin-1-yl]phenoxy}-2-methylpropanamide], for which the IC50 was 3.46 µM in assay [2], 10 to 20 µM in assay [3] (setting [8]), 10 to 20 µM in assay [3] (setting [7]) and 2.54 µM in assay [5].

As for `CC(C)(Oc1cccc(N2CCC[C@@H](NC(=O)N(Cc3ccc(-c4cn[nH]c4)cc3)C3CC3)C2)c1)C(=O)NCCCN` [Compound 19, N-(3-aminopropyl)-2-{3-[(3R)-3-{[cyclopropyl({[4-(1H-pyrazol-4-yl)phenyl]methyl})carbamoyl]amino}piperidin-1-yl]phenoxy}-2-methylpropanamide], the IC50 in assay [1] was 5 to 20 µM; in assay [2], 3.26 µM; in assay [4] it was 5.9 µM; in assay [5], 6.11 µM; in assay [6], 5 to 20 µM.
